Assays:
[1] = test system: IMQ-induced psoriasis-like back skin and ear lesions; test: Imiquimod (IMQ)-induced psoriasis mouse model, skin scoring (erythema, scaling, thickness); assay type: in vivo, Balb/C mice; conditions: mice; intradermal injection into back lesion Days 1 and 4; vs vehicle (FIG. 2)
Experimental: The subjects for the study were 40 male Balb/C mice (18-22 g). […] The backs of all mice were shaved for an area of 1.5 cm×2 cm.
Formulation A was a clear solution of 25 HC3S sodium salt (30 mg/mL) in a solution vehicle (250 mg/mL hydroxypropyl betadex (beta cyclodextrin, 2-hydroxypropyl ether, a partially substituted poly(hydroxypropyl) ether of beta cyclodextrin) and 10 mM sodium phosphate buffer in sterile water). Vehicle was stored at 2-8° C. storage and placed at room temperature for 30 min. prior to mixing with powdered 25HC3S just prior to use. Dissolution of the 25HC3S in Vehicle A was rapid and appeared to be complete upon mixing.
Formulation B was a milky suspension of 25HC3S sodium salt (25 mg/mL) in a suspension vehicle (30 mg/mL polyethylene glycol 3350, 3 mg/mL polysorbate 80, 7.5 mg/mL NaCl, and 10 mM sodium phosphate buffer in sterile water). The 25HC3S was milled using a Fluid Energy Model 00 Jet-O-Mizer™ to approximately a 5 microns average particle size (measured by a Malvern Mastersizer 2000 equipped with a hydro 2000S dispersion cell) prior to addition to the vehicle. […]
Mice were monitored for signs of distress and daily photos of the back lesions were taken. Erythema, scaling, and thickness of the back skin was scored daily on a scale from 0 to 4 by an independent scorer (blind), where 0=none; 1=slight; 2=moderate; 3=marked; and 4=very marked. […]

psoriasis plaques = test: Proof of concept study of single intralesional doses in psoriasis patients, microplaque assay (LPSI); assay type: in vivo, human; conditions: single intralesional dose (3 injections of 100 μL); 14 day scoring period
Description: The objectives of this study were: • To establish preliminary evidence for the efficacy of intralesionally injected 25HC3S in patients with psoriasis, as assessed by microplaque assay. • To assess the safety of 25HC3S in patients with psoriasis. • Compare evidence for the efficacy of different formulations of intralesionally injected 25HC3S.
• This trial was a double-blind, within-participant, randomized, vehicle and active comparator-controlled, single-dose study. Participants attended a screening visit within 28 days of dosing. A target plaque(s) of psoriasis was selected. • Day 0: each participant was treated with 2 different formulations of study drug, 2 vehicle formulations, one active comparator and one untreated area (6 treatments in total). Each treatment was administered to every participant as an intralesional injection, with the exception of the untreated area. • Participants were required to return for outpatient visits for microplaque assessments at Day 1, Day 2, Day 7 and Day 14. Treatment Formulations: Table 12 lists the formulated drug products and Table 13 lists the amounts injected.
Ten patients with mild to severe psoriasis were enrolled into this clinical trial after screening. […]
The effect of 25HC3S in psoriasis was assessed by the change of LPSI score as compared to vehicle or untreated in this microplaque assay. […]

Hannover Wistar rats = test: Acute single dose intramuscular (IM) injection study in rats; assay type: in vivo; conditions: minimal to moderate, drug-treated vs vehicle
Experimental: For the acute single dose study, Hannover Wistar rats (n=5/sex/dose group) received a single IM injection followed by 2 and 14 day observation periods. The solution that was tested included 30 mg/mL of 25HC3S sodium salt in vehicle (250 mg/mL hydroxypropyl-β-cyclodextrin in 10 mM sodium phosphate buffer in sterile water). Dose levels of 0 (vehicle), 3, 10 and 30 mg/kg of 25HC3S sodium salt were administered in dose volumes of 1.0, 0.1, 0.3 and 1.0 mL/kg. […] The changes were less severe (minimal only) after 14 days, indicating partial recovery; no clear effect of the presence of 25HC3S or vehicle volume was observed.

Compound: C[C@H](CCCC(C)(C)O)[C@H]1CC[C@H]2[C@@H]3CC=C4C[C@@H](OS(=O)(=O)[O-])CC[C@]4(C)[C@H]3CC[C@]12C.[Na+] [Formulation 25HC3S, 5-cholesten-3, 25-diol, 3-sulfate]
- erythema (redness) of the back skin [1]: promotes reduction in erythema
- effect on psoriatic plaques based on LPSI score (psoriasis plaques): exhibited efficacy in psoriatic plaques by reducing LPSI
- muscle degeneration/regeneration, hemorrhage and inflammation in injected muscles (Hannover Wistar rats): incidence and severity similar in vehicle and drug-treated rats

From patent US20190374554A1, “USE OF OXYGENATED CHOLESTEROL SULFATES (OCS) TO TREAT INFLAMMATORY SKIN DISEASE AND SKIN LESIONS” (Virginia Commonwealth University, priority 2016, published 2019)
